US20130197073A1, “HYPOCHOLESTEROLEMIC, ANTI-INFLAMMATORY AND ANTIEPILEPTIC NEUROPROTECTIVE COMPOUND” (NEURON BIOPHARMA, S.A., priority 2010, published 2013)

Columns and labels:
[1] = system: zebrafish (Danio rerio, AB strain) embryos; assay: Zebrafish embryo acute toxicity, mortality (OECD C.15); assay type: in vivo; conditions: for Mortality (dead larvae with respect to the total): 3 days
Description: 30 control animals treated with dilution water and with daily replacement until the end of the assay.
30 animals treated with compound NST0060 (3 embryos for every ten replicates) diluted in dilution water at doses between 1 and 100 mg/Kg and with daily replacement of the substance during the days that the assay lasted.
After the time of exposure to the substances under study, the mortality record of the larvae was determined, results being shown in Table 2.

TNFα [2] = assay: LPS model of systemic inflammation in mice, plasma TNFα, NST0060 compared with simvastatin; assay type: in vivo; conditions: two i.p. doses of 50 mg/kg (lactone forms); 2 hours after LPS 8 mg/kg i.p.
From the text: The investigators considered necessary to evaluate alternative activities with respect to hypocholesterolemic and neuroprotective activities given the characteristics and properties of the molecule. […] To evaluate this activity, a model of systemic shock in mice induced by lipopolysaccharide (LPS), a component of the gram negative bacteria structure that induces a cytokine-mediated, mainly TNFα-mediated, inflammatory response was used.
(§1) All the animals included during the experimental process were 12-week old male C57BL6 mice. The experiments were carried out strictly complying with the standard entitled Guidance on the Operation of Animals (Scientific Procedures, Act. 1986). The animals were subjected to their respective quarantine period and were treated with maximum precaution to minimize possible contaminations during treatments and handling.
In both cases 0.5% methyl cellulose in physiological saline, which was administered to mice in the control group with the same administration regimen, was used as a vehicle. Peripheral systemic inflammation was induced one hour after the last treatment by means of a single i.p. injection of LPS at 8 mg/kg. Two hours later blood was taken and plasma was obtained, which was used to evaluate the anti-inflammatory effect by analyzing plasma concentrations of TNFα by means of ELISA.

TNFα [3] = assay: LPS model of systemic shock in mice, plasma TNFα at 2 and 4 hours; assay type: in vivo; conditions: two i.p. doses of 50 mg/kg; 2 and 4 hours post-LPS
Description: as §1, with “To that end an additional assay was carried out in which all” for “All”, “included” for “included during the experimental process”
The mice were split up into three experimental groups: control group (n=8); control+LPS group (n=16); NST0060+LPS group (n=16). The mice were i.p. administered two doses of 50 mg/kg of NST0060 (in its lactone form) spaced out 12 hours from one another. 0.5% methyl cellulose in physiological saline, which was administered to the mice in the control groups with the same administration regimen, was used as a vehicle. Peripheral systemic inflammation was induced one hour after the last treatment by means of a single i.p. injection of LPS at 8 mg/kg. Half the mice in which systemic shock was induced (8 animals from the control+LPS group and 8 animals from the NST0060+LPS group) were sacrificed 2 hours after the inoculation of the LPS. Blood was taken and plasma was obtained, and both were frozen. […] The concentration of the inflammatory cytokines TNFα and IL-1β was evaluated in the plasma obtained by means of ELISA.

FVB/NHan mice = assay: Kainate (KA) model of epilepsy in mice, convulsions, status epilepticus, latency, Racine scale; assay type: in vivo
Description: as §1, with “males from the FVB/NHan strain.” for “male C57BL6 mice.”, “inoculations” for “treatments”
The animals were intraperitoneally inoculated with 25 mg/kg of kainate (KA) dissolved in PBS. Fourteen animals were pretreated at 24 and 0.5 hours before inoculation with KA by means of intraperitoneal injection with 0.25% methyl cellulose in PBS (vehicle+KA administration regimen), and 14 were pretreated at 24 and 0.5 hours before inoculation with KA by means of intraperitoneal injection with compound NST0060 at a dose of 50 mg/kg (NST0060+KA administration regimen). After inoculation, the animals were individually housed in trays to monitor them. The maximum level of epilepsy of the animals was recorded during the observation according to the Racine scale every ten minutes and for at least 120 minutes post-inoculation (m.p.i.).

[4] = system: promoter of a gene that could be modulated by oxidative stress bound to the firefly luciferase reporter gene; assay: Oxidative stress of the brain induced by kainate in luciferase reporter mice, in vivo bioluminescence; conditions: 50 mg/kg i.p. at 24 and 0.5 hours before KA 25 mg/kg and daily; 1 to 4 dpi
Description: as §1, with “males from the FVB/N strain who were carriers of a gene construct with the promoter of a gene that could be modulated by oxidative stress bound to the firefly luciferase reporter gene.” for “male C57BL6 mice.”, “inoculations” for “treatments”
The animals were intraperitoneally inoculated with 25 mg/kg of kainate (KA) dissolved in PBS. Seven mice were pretreated at 24 and 0.5 hours before inoculation with KA and subsequently on a daily basis up to 7 days post-inoculation by means of intraperitoneal injection with 0.25% methyl cellulose in PBS as a vehicle (vehicle+KA administration regimen), and another 7 mice were pretreated at 24 and 0.5 hours before inoculation with KA and subsequently on a daily basis up to 7 days post-inoculation by means of intraperitoneal injection with compound NST0060 at a dose of 50 mg/kg (NST0060+KA administration regimen). […] Oxidative stress in the brain was monitored by means of the in vivo bioluminescence technique with the IVIS Lumina system (Caliper LS). […]

## CCCC(CCC)C(=O)O[C@H]1C[C@@H](C)C=C2C=C[C@H](C)[C@H](CC[C@@H]3C[C@@H](O)CC(=O)O3)[C@H]21 [NST0060, 2-propylpentanoic acid (1S,3R,7S,8S,8aR)-1,2,3,7,8,8a-hexahydro-3,7-dimethyl-8-[2-[(2R,4R)-tetrahydro-4-hydroxy-6-oxo-2H-pyran-2-yl]ethyl]-1-naphthalenyl ester]
[1]; Dose 1 mg/kg
  Mortality (dead larvae with respect to the total): 0/30
[1]; Dose 3 mg/kg
  Mortality (dead larvae with respect to the total): 0/30
[1]; Dose 10 mg/kg
  Mortality (dead larvae with respect to the total): 7/30
[1]; Dose 30 mg/kg
  Mortality (dead larvae with respect to the total): 30/30
[1]; Dose 100 mg/kg
  Mortality (dead larvae with respect to the total): 30/30
[1]; dose of 10 mg/Kg, 72 h
  deaths out of 30 animals: 7
TNFα [2]
  TNFα plasma levels with respect to the control group: large decrease in said levels that is significant with respect to the control group
  TNFα plasma levels with respect to the simvastatin group: statistically significant TNFα plasma level reductions with respect to the group of simvastatin
TNFα [3]
  plasma concentration of TNFα (inflammatory response): decrease in the inflammatory response at both 2 and 4 hours post-LPS
FVB/NHan mice; 50 mg/kg i.p. at 24 and 0.5 hours before KA 25 mg/kg i.p., vehicle+KA 79%
  Status epilepticus, percentage of animals with tonic-clonic seizures lasting at least 30 minutes: 29%
FVB/NHan mice; 50 mg/kg i.p. at 24 and 0.5 hours before KA 25 mg/kg i.p., vehicle+KA 93%
  Convulsions, percentage of animals with tonic-clonic seizures: 36%
FVB/NHan mice; 50 mg/kg i.p. at 24 and 0.5 hours before KA 25 mg/kg, mean±SEM, vehicle+KA 45.7±7.5
  latency (time when the first convulsions occurred): 100.1 ± 7.3 min
FVB/NHan mice; 50 mg/kg i.p., two hours after KA, vehicle+KA above 4
  mean level of epilepsy on the Racine scale: ≤ 3
[4]
  expression of gene associated with oxidative stress in the brain (photon emission): did not show a significant increase in the expression of this gene associated with oxidative stress
